Assay results published in article PMC3293801, “Differential Contribution of the Repeats to Heparin Binding of HBHA, a Major Adhesin of Mycobacterium tuberculosis” (PLoS ONE, 2012).

Molecular target: T1, MalE-Ct (Mycobacterium tuberculosis, UniProt P9WIP9)
T1 construct: gene hbhA; pMAL+3R1+2R2, E. coli B834; 15N-labelled; MBP kept
Type: binding
Settings: 20 mM phosphate pH 6.8, 0.15 M NaCl, 20°C, 900 MHz, 60 µM protein; apparent, single site

T1 sequence (P9WIP9 161-199): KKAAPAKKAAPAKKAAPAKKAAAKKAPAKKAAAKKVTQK

Row | Substance | Kd [µM]
1 | dp14 heparin-derived oligosaccharide | 58.8 ± 14
2 | dp10 heparin-derived oligosaccharide | 79.4 ± 23
